Values joined by “and” are separate entries in the source; they are usually repeats but may differ in a detail not shown here. Equal entries are not always repeated.
Experiments:
Format in all cases: in vivo, dog
[1] = test system: dogs with canine cognitive dysfunction; experiment: CADES score questionnaire in dogs with cognitive dysfunction; conditions: for Average CADES score: treated dogs
Source text: Thirty-one dogs older than 10 years were screened for the study. Of these, 14 were excluded from the study because of different abnormal findings observed during the initial examination, including 3 dogs with brain tumor confirmed with the computed tomography (CT); 2 dogs with markedly elevated alanine aminotransferase (ALT) and serum alkaline phosphatase (ALP); 3 dogs with renal disease; 3 dogs with marked hearing and visual deficit; 2 dogs with both renal disease and moderately elevated ALT and ALP and 1 dog with eclampsia.
After the owner's consent, dogs were subjected to physical and neurological examination including body weight and body condition score, blood results for complete blood count (CBC), clinical chemistry, urinanalysis, the canine dementia scale (CADES) questionnaire, and two clinical cognitive tests [food searching test (FST) and problem solving test (PST)]. After these thorough examinations, the decision was made whether the dogs were included in the study. Dogs with systemic illnesses that could interfere with their cognitive function were excluded from the study.
Only dogs aged 10 years or older were included in the study. […] Dogs were not treated with any other medications for cognitive impairment. However, dogs that were included in the control group were allowed to be feed with the commercial therapeutic diet for cognitive decline, if they were on it at least 8 weeks before entering the study and if they maintained the same dietary protocol for the duration of the study. Dogs in the treatment group that were on a diet meant to treat cognitive decline were required to be off the diet for at least 30 days before enrollment and during the duration of the study.
(§1) The study design was following the guidelines of the European Directive 2010/63/EU. Before starting the experimental therapy with their pets, each owner was required to sign an informed consent form. According to The Administration of the Republic of Slovenian for Food Safety, Veterinary and Plant Protection, no ethical permission was needed as the study was performed on clinical patients with the owners' consents. In total, seventeen dogs showing signs of cognitive dysfunction were included in the study. […] Upon enrollment, dogs were physically and neurologically examined, blood and urine analysis were performed. Additionally, a questionnaire based on a modified CADES scale score and two clinical tests (FST and problem PST) for assessing their cognitive function were performed. Dogs were randomly allocated to one of the following two groups: Control group (n=7) without treatment and the treatment group (n=10). Questionnaire and cognitive tests were performed every 2 months on all the dogs included in the study.
Owners were observing their dog's health status daily during the duration of the study. In case of any serious or abnormal observations, they had to contact the participating veterinarian. Physical and excessive neurological examinations (behavior and consciousness, cranial nerves, gait and posture, postural reactions, spinal reflexes) were carried out by the veterinarian and included an assessment of all body systems. A full spectrum of neurobehavioral symptoms including apathy, anxiety, staring blankly, confusion or aimless walking, vocalization during the night, aggression, signs of compulsive and stereotyped behavior, etc. were obtained by questioning the pet owners. Dogs were monitored during examinations. Their responses to familiar and unfamiliar people and objects were observed. Exams were performed at the beginning of the study and every two weeks for the first two months if dogs were included in the treatment group. Thereafter, exams were performed every two months for the duration of the study (at least for 6 months). The control group was examined only every 2 months until the end of the study (for at least 6 months).
Changes in behavior of all dogs were evaluated by the same veterinarian. […]

[2] = test system: dogs with canine cognitive dysfunction; experiment: Cognitive tests (food searching test FST and problem solving test PST) in dogs with cognitive dysfunction; parameters: Problem solving test scores (sum of FST and PST test), individual patient: scale not given here; conditions: for Problem solving score (sum of FST and PST), group mean: treated dogs; for Problem solving test scores (sum of FST and PST test), individual patient: treated group, one line per patient 1-7, Hydrochloride
Procedure: as §1
FST and PST were performed on each dog included in the study. The design of these tests was based on previously published tests for canine cognitive dysfunction (González-Martinez A. et al. Vet. J. 2013, 198, 176-181). The cognitive tests were evaluated by the same veterinarian. Dogs were tested in the morning after at least 10 hours of the fasting period.
This test was based on testing the dog's ability to find hidden food. The dog was seated in the middle of the room while being on the leash. […] While maintaining visual contact with the dog and still communicating with the dog, showing the food, the veterinarian than moved backward and placed the food in the corner of the room. The veterinarian than stared at the food and pointed to it with his hand for 2-3 s to increase the dog's visual processing. The owner was then asked to leave the room with the dog and wait outside for 15 s. After returning to the room, the dog was placed into the center of the room unleashed and allowed to freely explore the room for 1 minute. No verbal or other clues were allowed. The procedure was repeated twice. […] The FST total score was the average of both runs.
In this test, the ability of the dog to obtain the food by manipulating an object was assessed. […] After that, the food was placed on the floor in front of the dog and covered with a transparent plastic box that had been turned upside down. The dog was given 2 minutes to find a way to remove the box and get the food. […]
Results are presented as mean+SD. […] CADES score and results from behavioral tests were analyzed by repeated measures ANOVA with treatment as the independent variable and clinical test (before the treatment, 3 months, and 6 months after the treatment) as within factor. […]

[3] = test system: dogs with canine cognitive dysfunction; experiment: Side effects during treatment of dogs with cognitive dysfunction
Procedure: as §1
Owners were observing their dog's health status daily during the duration of the study. In case of any serious or abnormal observations, they had to contact the participating veterinarian. […] Dogs were monitored during examinations. […]

[4] = treated group, after three months

SMILES: COCCN(CC1CCCN(Cc2ccccc2)C1)S(=O)(=O)c1ccc2ccccc2c1.Cl (racemic) [(±)-N-((1-Benzylpiperidin-3-Yl)Methyl)-N-(2-Methoxyethyl)Naphthalene-2-Sulfonamide Hydrochloride]
- Observed change in cognitive abilities ([1]; all treated dogs, six-month study): improved memory, cognitive functions, and learning abilities
- Average CADES score ([1]; after six months, untreated (2 remaining dogs) 80.5): 12.6+/−3.0
- Average CADES score ([1]; after three months, baseline 39+/−16.4, untreated 64.0+/−12.8): 17.1+/−10.6
- Cognitive state according to CADES ([1]; treated group, after six months): all dogs showed moderate cognitive impairment with low CADES score
- Dogs showing moderate cognitive impairment (two affected domains) [1, 4]: 85.7%
- Dogs showing severe cognitive impairment (three affected domains) [1, 4]: 14.3%
- Survival ([1]; treated group, six-month study, 5 of 7 untreated dogs euthanized): all dogs included stayed alive throughout the study
- Problem solving score (sum of FST and PST), group mean ([2]; after six months): 2.7+/−1.0
- Problem solving score (sum of FST and PST), group mean ([2]; after three months, baseline 5.3+/−1.4, untreated 7.6+/−1): 3.1+/−1.1
- Problem solving test scores (sum of FST and PST test), individual patient ([2]; after six months): 2 (4×) and 3 and 4 (2×)
- Problem solving test scores (sum of FST and PST test), individual patient ([2]; after three months): 4 (4×) and 2 (3×)
- Side effects ([3]; dogs with moderate cognitive impairment, 6 months of treatment): without any noticeable side effects
- Side effects ([3]; dogs with severe cognitive impairment (3 dogs), treatment stopped): signs of gastrointestinal problems with vomiting and diarrhea

From US20230331674A1 (priority 2020, published 2023)
